According to patent US20200157086A1, “BENZAMIDE COMPOUNDS AND THEIR USE AS HERBICIDES” (BASF SE, priority 2017, published 2020):

Columns and labels:
Experiment in all cases: post-emergence greenhouse test of herbicidal activity
Type in all cases: in vivo
Conditions in all cases: application rate 250 g/ha, 100 = complete destruction, 0 = no damage
[1] = system: ECHCG (Echinocloa crus-galli)
Excerpt: (§1) The seeds of the test plants were sown separately for each species. For the post-emergence treatment, the test plants were first grown to a height of 3 to 15 cm, depending on the plant habit, and only then treated with the active ingredients which had been suspended or emulsified in water. For this purpose, the test plants were either sown directly and grown in the same containers, or they were first grown separately as seedlings and transplanted into the test containers a few days prior to treatment. Depending on the species, the plants were kept at 10-25° C. or 20-25° C., respectively. The test period extended over 2 to 4 weeks. During this time, the plants were tended, and their response to the individual treatments was evaluated. Evaluation was carried out using a scale from 0 to 100. 100 means no emergence of the plants, or complete destruction of at least the aerial moieties, and 0 means no damage, or normal course of growth. A good herbicidal activity is given at values of at least 70 and a very good herbicidal activity is given at values of at least 85. At an application rate of 250 g/ha the following compounds were tested in post-emergence tests against: […]

[2] = system: AMARE (Amaranthus retroflexus)
Excerpt: as §1

[3] = system: CHEAL (Chenopodium album)
Excerpt: as §1

[4] = system: ALOMY (Alopecurus myosuroiedes)
Excerpt: as §1

In the case of `CCN(C)C(=O)Nc1c(Cl)ccc(C(=O)Nc2nnnn2C)c1C` [compound 3, 4-chloro-3-[[ethyl(methyl)carbamoyl]amino]-2-methyl-N-(1-methyltetrazol-5-yl)benzamide], the “herbicidal activity against ECHCG, scale from 0 to 100” value [1] is reported as 100, the “herbicidal activity against AMARE, scale from 0 to 100” value [2] is reported as 100 and the “herbicidal activity against CHEAL, scale from 0 to 100” value [3] is reported as 100. For the same compound, the “herbicidal activity against ALOMY, scale from 0 to 100” value [4] was 98.
